Earlier results, collected in patent US20250161386A1, “METHOD OF IMPROVING COGNITIVE FUNCTION IN ADULTS” (SEMPERA ORGANICS, INC., priority 2023, published 2025).

Columns and labels:
[1] = rat, oral administration of H. erinaceus mycelia extract
[2] = tested on: pro-brain-derived neurotrophic factor (BDNF); conditions: mice, after administration

Structure (SMILES): CC(C)C1=C2[C@H]3CCC4=C(O)C(=O)[C@@]5(O)CO[C@H]6O[C@@H]([C@@H]4[C@]65O)[C@]3(C)CC[C@@]2(C)CC1 [erinacine S]
- time of peak plasma concentration post dose [1]: 270 min

Structure (SMILES): CCCCCCCCCCCCCCCC(=O)OCc1cc(OC)c(C/C=C(\C)CCC=C(C)C)c(O)c1C=O [hericene A]
- circulating pro-BDNF [2]: increase
